The test system of this assay is T1, c-NKCC2 (chimeric NKCC1-NKCC2 construct).
T1 construct: gene SLC12A2; single polypeptide chimera: NKCC1 backbone with whole NKCC1 transmembrane domain, C-terminal apical sorting domain exchanged for that of mammalian NKCC2 isoform B; N-terminal HA tag; stably expressed in LLC-PK1 cells; NKCC2 part possibly rabbit; with Solute carrier family 12 member 1 (isoform B, C-terminal apical sorting domain)
The assay can be described thus: FluxOR Tl+ influx fluorescence, initial rate, FlexStation, stably transfected LLC-PK1 cells. The format is cell-based. Conditions: external Cl- 3-135 mM (gluconate replacement); co-substrates Na+ and Tl+ (2 mM Tl2SO4), K+-free, pH 7.4; single-site fit; Cl- starved cells.

Regarding `Cl` [Cl^-], the Km was 23.4 mM.

These data come from PMC3618206, “High-throughput fluorescent-based NKCC functional assay in adherent epithelial cells” (BMC Cell Biology, 2013).
